Consider 14 compounds from patent US12588678B2, “Oxazoline compound, synthesis method therefor and application thereof” (NANKAI UNIVERSITY, priority 2019, dated 2026).

The subject of assay [1] is Tetranychus cinnabarinus mite larvae. In words: Larvicidal activity test, dipping method on bean seedling leaves. The following applies: for acaricidal activity compared with etoxazole: Tetranychus cinnabarinus eggs and larvae, etoxazole as reference; for mortality at 0.001 µg/mL / mortality at 0.01 µg/mL / mortality at 0.1 µg/mL / mortality at 0.5 µg/mL / mortality at 1 µg/mL / mortality at 10 µg/mL / mortality at 100 µg/mL / mortality at 200 µg/mL / mortality at 0.05 µg/mL: Tetranychus cinnabarinus, 96 h, checked after 4 days; for mortality at 0.001 µg/mL: read-out: mortality of mite larvae (%), 0.001 mg/L; for mortality at 0.01 µg/mL: read-out: mortality of mite larvae (%), 0.01 mg/L; for mortality at 0.1 µg/mL: read-out: mortality of mite larvae (%), 0.1 mg/L; for mortality at 0.5 µg/mL: read-out: mortality of mite larvae (%), 0.5 mg/L; for mortality at 1 µg/mL: read-out: mortality of mite larvae (%), 1 mg/L; for mortality at 10 µg/mL: read-out: mortality of mite larvae (%), 10 mg/L; for mortality at 100 µg/mL: read-out: mortality of mite larvae (%), 100 mg/L; for mortality at 200 µg/mL: read-out: mortality of mite larvae (%), 200 mg/L; for mortality at 0.05 µg/mL: read-out: mortality of mite larvae (%), 0.05 mg/L. The assay is classed as in vivo. In a few lines:
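Leaves bearing mite larvae, hatched from eggs laid over 24 h and grown 5 days at 25° C (≥60 mites per leaf), were dipped 5–6 s in compound solution with Tween. Mortality was scored after 4 days of culture against an additive-only blank. Three replicates per compound.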

The test system of assay [2] is Tetranychus cinnabarinus mite eggs. In words: Activity against mite eggs, dipping method on bean seedling leaves. The class given is in vivo. Particulars: Tetranychus cinnabarinus, 96 h, checked after 4 days; for mortality at 0.001 µg/mL: read-out: mortality of mite eggs (%), 0.001 mg/L; for mortality at 0.01 µg/mL: read-out: mortality of mite eggs (%), 0.01 mg/L; for mortality at 0.5 µg/mL: read-out: mortality of mite eggs (%), 0.5 mg/L; for mortality at 1 µg/mL: read-out: mortality of mite eggs (%), 1 mg/L; for mortality at 10 µg/mL: read-out: mortality of mite eggs (%), 10 mg/L; for mortality at 100 µg/mL: read-out: mortality of mite eggs (%), 100 mg/L; for mortality at 200 µg/mL: read-out: mortality of mite eggs (%), 200 mg/L; for mortality at 0.1 µg/mL: read-out: mortality of mite eggs (%), 0.1 mg/L. In a few lines:
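Female T. cinnabarinus laid eggs on bean seedling leaves for 24 h at 25° C., adults removed; after 1 day, egg-bearing leaves dipped 5-6 s in test solution. Mortality of eggs scored after 4 further days of greenhouse culture, versus additive-only blank; three replicates per compound.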

For the compound `Fc1cccc(F)c1C1=NC(c2ccc(COc3ccc(Cl)cc3)cc2)CO1` (stereo not drawn) [Compound R2-19], in assay [1], the “acaricidal activity compared with etoxazole” value is recorded as “higher acaricidal activity than etoxazole”, the mortality at 0.001 µg/mL is 8%, the mortality at 0.01 µg/mL amounted to 30% and the mortality at 0.1 µg/mL stood at 85%. Besides, in assay [1], the mortality at 0.5 µg/mL worked out at 72%, the mortality at 1 µg/mL is 88%, the mortality at 10 µg/mL came out at 90% and the mortality at 100 µg/mL came to 100%. The mortality at 200 µg/mL in assay [1] stood at 100%. Further, in assay [2], the mortality at 0.001 µg/mL is 10%, the mortality at 0.01 µg/mL was 32%, the mortality at 0.5 µg/mL was 80% and the mortality at 1 µg/mL worked out at 90%. Moreover, in assay [2], the mortality at 10 µg/mL is 100%, the mortality at 100 µg/mL came out at 100% and the mortality at 200 µg/mL is 100%.

Take `Fc1cccc(F)c1C1=NC(c2ccc(COc3ccc(Br)cc3)cc2)CO1` (stereo not drawn) [Compound R2-20]: in assay [1], the mortality at 1 µg/mL was found to be 40%, the mortality at 10 µg/mL amounted to 80%, the mortality at 100 µg/mL came to 92% and the mortality at 200 µg/mL was 100%. Also, in assay [2], the mortality at 1 µg/mL came to 60%, the mortality at 10 µg/mL worked out at 90%, the mortality at 100 µg/mL worked out at 100% and the mortality at 200 µg/mL came out at 100%.

Turning to `Cc1ccc(OCc2ccc(C3COC(c4c(F)cccc4F)=N3)cc2)cc1` (stereo not drawn) [Compound R2-22], in assay [1], the mortality at 1 µg/mL turned out to be 55%, the mortality at 10 µg/mL was 88%, the mortality at 100 µg/mL came to 96% and the mortality at 200 µg/mL worked out at 100%. Also, in assay [2], the mortality at 0.1 µg/mL stood at 80%, the mortality at 1 µg/mL worked out at 90%, the mortality at 10 µg/mL was 100% and the mortality at 100 µg/mL is 100%. In assay [2], the mortality at 200 µg/mL was 100%.

Take `Fc1cccc(F)c1C1=NC(c2ccc(COc3ccc(C(F)(F)F)cc3)cc2)CO1` (stereo not drawn) [Compound R2-23]: in assay [1], the mortality at 0.1 µg/mL is 75%, the mortality at 1 µg/mL worked out at 80%, the mortality at 10 µg/mL was determined as 95% and the mortality at 100 µg/mL came out at 100%. In assay [1], the mortality at 200 µg/mL was found to be 100%. In assay [2], the mortality at 0.1 µg/mL is 75%, the mortality at 1 µg/mL amounted to 85%, the mortality at 10 µg/mL turned out to be 90% and the mortality at 100 µg/mL was determined as 90%. The mortality at 200 µg/mL in assay [2] was found to be 100%.

Take `Fc1cccc(F)c1C1=NC(c2ccc(COc3ccc4ccccc4c3)cc2)CO1` (stereo not drawn) [Compound R2-24]: in assay [1], the “acaricidal activity compared with etoxazole” value is listed as “higher acaricidal activity than etoxazole”, the mortality at 0.001 µg/mL turned out to be 20%, the mortality at 0.01 µg/mL was determined as 50% and the mortality at 0.1 µg/mL worked out at 85%. Further, in assay [1], the mortality at 0.5 µg/mL was 80%, the mortality at 1 µg/mL came to 100%, the mortality at 10 µg/mL came out at 100% and the mortality at 100 µg/mL turned out to be 100%. Moreover, the mortality at 200 µg/mL in assay [1] came to 100%. Moreover, in assay [2], the mortality at 0.001 µg/mL was determined as 28%, the mortality at 0.01 µg/mL turned out to be 50%, the mortality at 0.1 µg/mL amounted to 70% and the mortality at 0.5 µg/mL turned out to be 85%. Further, in assay [2], the mortality at 1 µg/mL was 80%, the mortality at 10 µg/mL amounted to 95%, the mortality at 100 µg/mL worked out at 100% and the mortality at 200 µg/mL was determined as 100%.

With `CS(=O)(=O)Oc1ccc(C2COC(c3c(F)cccc3F)=N2)cc1` (stereo not drawn) [Compound R3-1], in assay [1], the mortality at 0.1 µg/mL amounted to 50%, the mortality at 1 µg/mL was 80%, the mortality at 10 µg/mL stood at 100% and the mortality at 100 µg/mL was determined as 100%. Further, the mortality at 200 µg/mL in assay [1] worked out at 100%. For the same compound, in assay [2], the mortality at 1 µg/mL turned out to be 70%, the mortality at 10 µg/mL was found to be 90%, the mortality at 100 µg/mL came out at 95% and the mortality at 200 µg/mL was 100%.

Take `CCS(=O)(=O)Oc1ccc(C2COC(c3c(F)cccc3F)=N2)cc1` (stereo not drawn) [Compound R3-2]: in assay [1], the mortality at 1 µg/mL was found to be 60%, the mortality at 10 µg/mL is 90%, the mortality at 100 µg/mL came to 100% and the mortality at 200 µg/mL was determined as 100%. Also, in assay [2], the mortality at 1 µg/mL stood at 50%, the mortality at 10 µg/mL is 80%, the mortality at 100 µg/mL was 95% and the mortality at 200 µg/mL is 100%.

Take `CCCS(=O)(=O)Oc1ccc(C2COC(c3c(F)cccc3F)=N2)cc1` (stereo not drawn) [Compound R3-3]: in assay [1], the “acaricidal activity compared with etoxazole” value is “equivalent or better acaricidal activity compared with etoxazole”, the mortality at 0.05 µg/mL came out at 40%, the mortality at 0.1 µg/mL came to 80% and the mortality at 0.5 µg/mL is 95%. Besides, in assay [1], the mortality at 1 µg/mL is 100%, the mortality at 10 µg/mL stood at 100%, the mortality at 100 µg/mL was 100% and the mortality at 200 µg/mL was 100%. The mortality at 0.05 µg/mL in assay [2] (read-out: mortality of mite eggs (%), 0.05 mg/L) turned out to be 20%. Further, in assay [2], the mortality at 0.1 µg/mL was 50%, the mortality at 0.5 µg/mL was 75%, the mortality at 1 µg/mL turned out to be 90% and the mortality at 10 µg/mL came to 100%. Also, in assay [2], the mortality at 100 µg/mL stood at 100% and the mortality at 200 µg/mL is 100%.

As to `C=CS(=O)(=O)Oc1ccc(C2COC(c3c(F)cccc3F)=N2)cc1` (stereo not drawn) [Compound R3-6], in assay [1], the mortality at 1 µg/mL came out at 60%, the mortality at 10 µg/mL stood at 80%, the mortality at 100 µg/mL was 80% and the mortality at 200 µg/mL amounted to 100%. For the same compound, in assay [2], the mortality at 10 µg/mL was determined as 60%, the mortality at 100 µg/mL amounted to 80% and the mortality at 200 µg/mL stood at 100%.

`O=S(=O)(Oc1ccc(C2COC(c3c(F)cccc3F)=N2)cc1)c1ccc(F)cc1` (stereo not drawn) [Compound R3-7]: in assay [1], the mortality at 1 µg/mL turned out to be 50%, the mortality at 10 µg/mL is 90%, the mortality at 100 µg/mL turned out to be 100% and the mortality at 200 µg/mL worked out at 100%. In assay [2], the mortality at 1 µg/mL was found to be 60%, the mortality at 10 µg/mL came out at 90%, the mortality at 100 µg/mL amounted to 100% and the mortality at 200 µg/mL was determined as 100%.

For `O=S(=O)(Oc1ccc(C2COC(c3c(F)cccc3F)=N2)cc1)c1ccc(Cl)cc1` (stereo not drawn) [Compound R3-8], in assay [1], the mortality at 0.1 µg/mL was 60%, the mortality at 1 µg/mL amounted to 85%, the mortality at 10 µg/mL worked out at 98% and the mortality at 100 µg/mL came out at 100%. Further, in assay [1], the mortality at 200 µg/mL is 100%. Also, in assay [2], the mortality at 1 µg/mL came to 70%, the mortality at 10 µg/mL was 90%, the mortality at 100 µg/mL worked out at 95% and the mortality at 200 µg/mL was 100%.

As for `O=S(=O)(Oc1ccc(C2COC(c3c(F)cccc3F)=N2)cc1)c1ccc(Br)cc1` (stereo not drawn) [Compound R3-9], in assay [1], the “acaricidal activity compared with etoxazole” value is given as “equivalent or better acaricidal activity compared with etoxazole”, the mortality at 0.05 µg/mL came to 40%, the mortality at 0.1 µg/mL was found to be 70% and the mortality at 0.5 µg/mL was 90%. Also, in assay [1], the mortality at 1 µg/mL turned out to be 100%, the mortality at 10 µg/mL was 100%, the mortality at 100 µg/mL was determined as 100% and the mortality at 200 µg/mL came to 100%. Moreover, in assay [2], the mortality at 0.1 µg/mL was determined as 30%, the mortality at 0.5 µg/mL stood at 60%, the mortality at 1 µg/mL amounted to 75% and the mortality at 10 µg/mL was 90%. In assay [2], the mortality at 100 µg/mL came out at 100% and the mortality at 200 µg/mL turned out to be 100%.

Turning to `O=S(=O)(Oc1ccc(C2COC(c3c(F)cccc3F)=N2)cc1)c1ccc(I)cc1` (stereo not drawn) [Compound R3-10], in assay [1], the mortality at 1 µg/mL amounted to 65%, the mortality at 10 µg/mL was found to be 88%, the mortality at 100 µg/mL stood at 100% and the mortality at 200 µg/mL stood at 100%. Moreover, in assay [2], the mortality at 1 µg/mL was found to be 60%, the mortality at 10 µg/mL amounted to 85%, the mortality at 100 µg/mL was determined as 100% and the mortality at 200 µg/mL came to 100%.

As to `O=S(=O)(Oc1ccc(C2COC(c3c(F)cccc3F)=N2)cc1)c1ccccc1F` (stereo not drawn) [Compound R3-11], in assay [1], the mortality at 0.1 µg/mL was found to be 50%, the mortality at 1 µg/mL amounted to 80%, the mortality at 10 µg/mL turned out to be 90% and the mortality at 100 µg/mL was determined as 100%. Besides, the mortality at 200 µg/mL in assay [1] was found to be 100%. In addition, in assay [2], the mortality at 1 µg/mL was determined as 50%, the mortality at 10 µg/mL is 80%, the mortality at 100 µg/mL turned out to be 95% and the mortality at 200 µg/mL came out at 100%.
